Test results: patent US20230399374A1, “Compounds, Compositions and Methods of Use to Treat Bone Fractures” (PURDUE RESEARCH FOUNDATION, priority 2020, published 2023)
Non-standard residues stand in square brackets, D forms with d. No end group written: not given here. Aib = CC(C)(N)C(=O)O

Tests used:
midshaft femur fracture = assay: Pain/function outcomes, locomotor open-field testing after midshaft femur fracture; assay type: in vivo, mice; conditions: 5 weeks post-fracture, measured once a week
Method: Pain/function outcomes in mice were accessed by turning to behavioral testing. Allodynia was evaluated using Von Frey probes, whereas gain was evaluated using DigiGait, functionality was evaluated using running wheels, and anxiety coupled with functionality was evaluated using locomotor open-field testing. Open-field locomotor testing afforded the most consistent measurements.
Mice were habituated to the behavior room for 30-60 minutes before testing locomotor activity. Animals were habituated once for 10 minutes to the locomotor boxes prior to the start of the experiment. They were then placed individually in a locomotor box with infrared light tracking beams for 10 minutes before being removed and placed back in their home cage. The mice were tracked via EthoVision using 3-point directionality testing. Mice were measured for two weeks prior to the experiment. They then underwent the midshaft femur fracture model and were assigned to one of three treatment groups: 1) abaloparatide DE20 twice a week; 2) phosphate buffered saline twice a week; or 3) ibuprofen (0.6 g/L) in their water. The mice were treated for 5 weeks post-fracture and measured once a week.
For FIGS. 26-28, day 0 represents the baseline data pre-fracture. Saline and SEQ ID NO: 4 (1 nmol) were injected twice/week. Ibuprofen was administered constantly in the mice's water at a concentration of 0.6 g/L.

[1] = test system: midshaft femoral fractures; assay: Midshaft femur fracture healing in otherwise healthy mice (micro-CT, bend to failure); assay type: in vivo
Text: In some instances, elevated accumulation of SEQ ID NO: 4 at the fracture site improves fracture healing (e.g., FIGS. 26-30). In some instances, femur fracture healing times following administration of a starting dose calculated by allometric scaling of the human dose prescribed for abaloparatide (SEQ ID NO: 2) treatment of osteoporosis are compared.
Bone morphometric analyses confirmed a 1.5-fold increase in the ratio of mineralized volume (bone volume; BV) to total bone volume (total volume; TV) in the SEQ ID NO: 4-treated mice.
In some instances, such as, to establish whether the observed increase in bone deposition translates into an improvement in mechanical properties, the force required to bend the healed femurs until they fractured again was measured.
In some instances, the force to fracture in the SEQ ID NO: 4-treated mice exceeded that required to fracture the contralateral healthy femurs in the same mice or similar, unmodified femurs in saline-treated mice.
The length of the targeting oligopeptide was increased to determine if it increased the drug's affinity for broken bone sufficiently that retention of the anabolic payload at the fracture site would be prolonged and less frequent dosing may be required. Mice were doses once every three days, rather than daily. […] The results are shown in FIG. 34, which is a graph of treatment (saline, SEQ ID NO: 3 (0.1 nmol/mg (0.1×), 1 nmol/mg (1×), and 10 nmol/mg (10×), and SEQ ID NO: 4 (0.1 nmol/mg (0.1×), 1 nmol/mg (1×), and 10 nmol/mg (10×)) vs. max load (N) of mice with midshaft femoral factures.

[2] = test system: type I diabetic femur fracture; assay type: in vivo; conditions: for callus mineralization (BV) and bone density (BV/TV): four weeks of treatment, micro-CT, FIG. 13 and 14; for strength of the fractures (max load, work to fracture): four weeks, 4-point bend, FIG. 15 and 16
Method: Targeted conjugates of SEQ ID NO: 5, abaloparatide (SEQ ID NO: 2), SEQ ID NO: 6, and SEQ ID NO: 9 (a conjugate with 10 aspartic acid residues) were synthesized using Fmoc solid-phase peptide synthesis. From SEQ ID NO: 5, amino acids 1-34 were used, and abaloparatide (SEQ ID NO: 2) is a stabilized version of amino acids 1-36 of SEQ ID NO: 1. Diabetes was induced in 40 8-week-old male CD-1 mice via seven subcutaneous injections of streptozotocin (STZ) until blood sugar readings were above 250 mg/dL. The mice were left in this confirmed diabetic state for 2 months to allow the diabetes to take effect on the bones. Then, aseptic surgical techniques were used to place a 23-gauge needle as an intramedullary nail in the femur of the anesthetized mice for internal fixation before fracture was induced with a drop-weight fracture device from RISystem and confirmed by x-ray. The mice received buprenorphine for three days post-fracture. They were dosed subcutaneously with a positive control of insulin, a negative control of vehicle, SEQ ID NO: 5, or abaloparatide (SEQ ID NO: 2) each day for 4 weeks. Fracture healing was assessed qualitatively using micro-CT (Scanco Medical Ag). Fractured femurs were tested for strength in a 4-point-bend-to-failure using an ElectroForce TestBench (TA Instruments, New Castle, DE). Maximum load, stiffness, displacement post-yield, and work-to-fracture data were generated. Statistical analysis was performed using a one-way analysis of variance (ANOVA) with significance reported with p values less than 0.05 (*) and 0.01 (**).
Four compounds were tested. […] Abaloparatide (SEQ ID NO: 2) is a stabilized version of parathyroid-related protein hormone. Dasatinib is an […] with off-target effects on both osteoblasts and osteoclasts that improve overall bone density. Dasatinib has also proven to be a senolytic. ITGA is a fibronectin mimetic that promotes intramembranous bone fracture healing. […] Therefore, it was hypothesized that the glucose regulating properties of full-length SEQ ID NO: 5 may be beneficial in healing type I diabetic fractures as a dual-action compound that may improve healing via two mechanisms. The compounds were compared against insulin as a positive control and saline as a negative control.
BV represents the bone volume of the 100 thickest micro-CT slices of the fracture callus and is a measure of how much bone has mineralized at the site of fracture repair. BV/TV represents the BV divided by TV of the 100 thickest micro-CT slides of the fracture callus and is a measure of how dense the bone is at the site of fracture repair. Insulin was dosed as 2 IU/day. Doses of 0.1×, 50×, and 10×, are […], and 10 nmol, respectively, of the conjugate delivered daily by subcutaneous injection. SEQ ID NO: 6 was dosed at 10 μmol/kg every other day.
Insulin was dosed at 2 IU/day. Doses of 0.1×, 50×, and 10×, are 0.1 nmol, 50 nmol, and […], of the conjugate delivered daily by subcutaneous injection. SEQ ID NO: 6 was dosed at 10 μmol/kg every other day.

CC(C)Cc1ccc(C(C)C(=O)O)cc1 (stereo not shown) [ibuprofen, reference compound]
pain/function outcomes, well-being in the open field (midshaft femur fracture): did not improve their pain/function outcomes

SEQ ID NO: 3: SEQ ID NO: 15 (AVSEHQLLHDKGKSIQDLRRRELLEKLLxKLHTAEIRATSEVSPNS) followed by eeeeeeeeee, e = D-glutamic acid (AVSEHQLLHDKGKSIQDLRRRELLEKLL[Aib]KLHTAEIRATSEVSPNS[dE][dE][dE][dE][dE][dE][dE][dE][dE][dE])
max load compared to saline (significance) ([1]; dosed once every three days, FIG. 34): lacked significance when dosed every three days | healing in healthy femur fractures ([1]; mouse, in vivo): repeatedly accelerated healing in healthy femur fractures | relative effectiveness at improving bone healing ([1]; mouse, in vivo): better than abaloparatide

SEQ ID NO: 6: a targeted conjugate of dasatinib (e.g., D10-ester-dasatinib) ({ester‑dasatinib}-DDDDDDDDDD)
callus mineralization (BV) and bone density (BV/TV) [2]: without improving the callus mineralization | strength of the fractures (max load, work to fracture) [2]: improved strength | change in body mass ([2]; mouse, in vivo): lost weight | toxicity (in words) ([2]; mouse, in vivo): exhibited some toxicity at higher doses | healing in healthy femur fractures ([1]; mouse, in vivo): repeatedly accelerated healing in healthy femur fractures

SEQ ID NO: 7: ITGA (fibronectin mimetic cyclic peptide 101) conjugated with 10 glutamic acid residues (HEEEEEEEEEERRETAWA; also: cyclic, ring not given here)
healing in healthy femur fractures ([1]; mouse, in vivo): repeatedly accelerated healing in healthy femur fractures

insulin [reference compound]
callus mineralization (BV) and bone density (BV/TV) [2]: improvement in mineralization | strength of the fractures (max load, work to fracture) [2]: not able to restore the quality of the bone | blood sugar levels ([2]; four-week treatment period, FIG. 18): the only compound to improve blood sugar levels
